The nature of assay [1]: Antagonist activity at human D3 receptor expressed in HEK293 cells assessed as inhibition of quinpirole-stimulated mitogenesis.
Assay [2] is described as follows: Agonist activity at human D3 receptor expressed in HEK293 cells assessed as stimulation of mitogenesis.

One may read the IC50 as the concentration that gives 50% inhibition. For the compound `O=C(NCC(O)CCN1CCN(c2cccc(Cl)c2Cl)CC1)c1cc2ccccc2[nH]1` (centres undefined), the IC50 in assay [1] worked out at 25.7 nM.
Same read-out and setting: for `COc1ccccc1N1CCN(CC(O)CCNC(=O)c2cc3ccccc3s2)CC1` (centres undefined) the value was 39.1 nM; for `COc1ccccc1N1CCN(CC(O)CCNC(=O)c2cc3cc(I)ccc3o2)CC1` (centres undefined), 14.5 nM.
By EC50 is commonly meant the concentration giving half of the maximal effect. As for `O=C(NCCC(O)CN1CCN(c2cccc(Cl)c2Cl)CC1)c1cc2cc(I)ccc2o1` (centres undefined), in assay [2], the EC50 came to 84 nM.
Take `COc1ccccc1N1CCN(CC(O)CCNC(=O)c2cc3ccccc3o2)CC1` (centres undefined): in assay [1], the IC50 was found to be 11.2 nM.
As for `O=C(NCCC(O)CN1CCN(c2cccc(Cl)c2Cl)CC1)c1cc2ccccc2o1` (centres undefined), in assay [2], the concentration giving a half-maximal response (EC50) is 22.8 nM.
With `COc1ccc2[nH]c(C(=O)NCCC(O)CN3CCN(c4ccccc4OC)CC3)cc2c1` (centres undefined), in assay [1], the IC50 was 1.58 nM.
Turning to `COc1ccc2[nH]c(C(=O)NCCC(O)CN3CCN(c4cccc(Cl)c4Cl)CC3)cc2c1` (centres undefined), the IC50 in assay [1] turned out to be 1.51 nM.
For the compound `COc1ccccc1N1CCN(CC(O)CCNC(=O)c2cc3cc(I)ccc3[nH]2)CC1` (centres undefined), in assay [1], the IC50 turned out to be 173 nM.
`O=C(NCCC(O)CN1CCN(c2cccc(Cl)c2Cl)CC1)c1cc2cc(I)ccc2[nH]1` (centres undefined): in assay [1], the IC50 is 38 nM.
Regarding `COc1ccccc1N1CCN(CC(O)CCNC(=O)c2cc3cc(F)ccc3[nH]2)CC1` (centres undefined), the IC50 in assay [1] amounted to 1.76 nM.
As to `CCCOc1ccccc1N1CCN(CC(O)CCNC(=O)c2cc3ccccc3[nH]2)CC1` (centres undefined), the half-inhibitory concentration (IC50) in assay [1] is 6.51 nM.
As for `COc1ccccc1N1CCN(CC(O)CCNC(=O)c2cc3ccccc3[nH]2)CC1` (centres undefined), in assay [1], the IC50 was found to be 12.1 nM.
The same measure, in the same setting: the result for `COc1ccccc1N1CCN(C/C=C/CNC(=O)c2cc3ccccc3s2)CC1` reads 1.09 nM; that for `COc1ccccc1N1CCN(C/C=C/CNC(=O)c2cc3ccccc3o2)CC1`, 14.9 nM; that for `O=C(NC/C=C/CN1CCN(c2cccc(Cl)c2Cl)CC1)c1cc2ccccc2[nH]1`, 7 nM.
Same read-out and setting: the result for `COc1ccccc1N1CCN(CCCCNC(=O)c2cc3cc(I)ccc3o2)CC1` [5-Iodo-benzofuran-2-carboxylic acid {4-[4-(2-methoxy-phenyl)-piperazin-1-yl]-butyl}-amide] reads 22.9 nM.
The same measure, in the same setting: the result for `COc1ccccc1N1CCN(CCCCNC(=O)c2cc3ccccc3s2)CC1` [Benzo[b]thiophene-2-carboxylic acid {4-[4-(2-methoxy-phenyl)-piperazin-1-yl]-butyl}-amide] reads 0.22 nM.
On to `COc1ccccc1N1CCN(CCCCNC(=O)c2cc3ccccc3o2)CC1` [Benzofuran-2-carboxylic acid {4-[4-(2-methoxy-phenyl)-piperazin-1-yl]-butyl}-amide], for which, in assay [1], the 50% inhibitory concentration (IC50) is 2.39 nM.

The values above are taken from BindingDB's records for doi:10.1021/jm900095y (National Institute On Drug Abuse-Intramural Research Program, 2009).
